Experimental findings from patent publication US20120270812A1, “COMPOSITIONS, METHODS, AND KITS FOR DETERMINING AN ALKYL TRANSFERASE” (Duke University, priority 2009, published 2012) are described below.

Like-named read-outs stand apart in the source and are kept apart here.

For data set [1], the target named is T1, human AGT (Homo sapiens, UniProt P16455).
T1 construct: expressed in transfected cells; host or cells: CHO-K1 cells, geneticin-selected clones, plasmid pCMV-AGT
T1 sequence (P16455 1-207): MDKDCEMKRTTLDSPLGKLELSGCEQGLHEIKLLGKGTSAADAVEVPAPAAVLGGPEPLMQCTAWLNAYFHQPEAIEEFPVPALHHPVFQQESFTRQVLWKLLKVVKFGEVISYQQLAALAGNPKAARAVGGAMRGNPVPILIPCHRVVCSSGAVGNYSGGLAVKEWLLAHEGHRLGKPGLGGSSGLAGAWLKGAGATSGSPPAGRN
As to the kind of experiment: Depletion (inactivation) of cellular AGT activity in CHO cells transfected with pCMV-AGT. It is filed as cell-based. As to the method:
FIG. 8 is a graph showing depletion of cellular AGT activity by unlabeled 6-(4-fluoro-benzyloxy)-9H-purin-2-ylamine (O^6-4-fluorobenzylguanine (FBG)) and 6-(iodo-benzyloxy)-9H-purin-2-ylamine (O^6-iodobenzylguanine (IBG)). CHO cells transfected with pCMV-AGT were incubated with varying concentrations of IBG (▪) or FBG ([…]) for 4 hours, and the AGT activity associated with the cells was determined. The results are expressed as the percentage of the AGT activity present in cell cultures that were not treated with FBG or IBG.
CHO-K1 cells were maintained in αMEM (Gibco, Grand Island, N.Y.) containing 10% fetal bovine serum. […]
Inactivation of cellular AGT was measured by adding varying concentrations of FBG or IBG to cell cultures that had reached 80-90% confluence. […] AGT activity was measured by assaying the loss of [^3H]—O^6-methylguanine from a [^3H] methylated calf thymus DNA substrate as described by, e.g., Dolan et al., PNAS, 87:5368-5372 (1990). The results are expressed as the percentage of the AGT activity present in cell cultures that were not treated with FBG or IBG. […]
Because IBG is a new compound, its ability to deplete AGT was determined using CHO cells transfected with pCMV-AGT to express AGT. In parallel, the ability of FBG to deplete AGT under the same conditions also was measured. […]

The target in data set [2] is T2, Purified human AGT with a (His)6 tag (Homo sapiens, UniProt P16455).
T2 construct: (His)6
T2 sequence (P16455 1-207): T1 sequence (P16455 1-207)
As to the kind of experiment: In vitro binding of radiolabeled FBG or IBG to purified AGT (TCA precipitation). The note with it: for maximum observed AGT to BSA binding ratio: 10 μg AGT vs 10 μg BSA (nonspecific protein); for unlabeled compound concentration above which saturation was observed: binding to purified AGT. The protocol: FIG. 9 is a graph showing binding of [^18F] FBG to purified AGT as a function of unlabeled FBG concentration. […] FBG was incubated for 30 minutes at 37° C., in the presence or absence of increasing amounts of unlabeled FBG, with 10 μg of AGT ([…]), or to control for nonspecific binding, 10 μg of BSA (▴) in a Tris-buffer. The protein-associated activity was determined by TCA precipitation.
IBG to purified AGT as a function of unlabeled IBG concentration. […] IBG with AGT ([…]) or BSA (▴).
Purified human AGT with a (His)6 tag was generously provided by Dr. Anthony E. Pegg of Hershey Medical Center, Pennsylvania State University. […] The incubation carried out in 0.1 ml 50 mM Tris-Cl, pH 7.5, 5 mM DTT, 0.1 mM EDTA in the presence of 10 μg calf thymus DNA. […] The precipitated proteins were collected on GF-C (Whatman) filters, which were washed extensively with 5% TCA. The results are expressed as the percentage of input activity retained on the filter. For each concentration, the assay was performed in triplicate.
To investigate whether AGT recognizes radiolabeled FBG and IBG as substrates, the efficacy of transfer of their radiolabeled benzyl groups to AGT was determined using the purified protein. […] The preparation of ^13C-and ^14C-labeled O^6-benzylguanosines has been reported by, e.g., Madelmont et al., J. Lab. Comp.

Data set [3] is described as follows: Stability during reversed-phase chromatography with 0.1% TFA in water. The class given is physicochemical. The note with it: 0.1% TFA in water (pH 2) as a co-solvent. The text has this: A combination of radio-TLC, and normal-phase and reversed-phase HPLC was used to verify that the final product was indeed IBG and not the 3-iodobenzyl alcohol. Very little if any of 3-iodobenzyl alcohol was detected in the reaction mixture. In addition, the final product bound to AGT specifically (vide infra), which further supports its authenticity. […] This may be due to the lack of water in the reaction mixture or a rate factor may be involved. Both IBG and FBG were stable during reversed-phase chromatography involving 0.1% TFA in water (pH 2) as a co-solvent.

As for `Nc1nc(OCc2ccc(F)cc2)c2nc[nH]c2n1` [FBG, 6-(4-fluoro-benzyloxy)-9H-purin-2-ylamine, reference compound], the IC50 worked out at 50 nM in data set [1] (CHO cells transfected with pCMV-AGT, 4 hours of drug treatment, read-out: IC50 for depleting AGT) and 5000 nM in data set [2] (10 μg AGT, 30 minutes at 37° C., read-out: IC50 (binding to purified AGT as a function of unlabeled compound concentration)). For the same compound, the “stability during reversed-phase chromatography” value in data set [3] is listed as “stable”.
As to `Nc1nc(OCc2cccc(I)c2)c2[nH]cnc2n1` [IBG, 6-(3-Iodo-benzyloxy)-9H-purin-2-ylamine], the IC50 was 15 nM in data set [1] and around 6000 nM in data set [2]. In data set [3], the “stability during reversed-phase chromatography” value is “stable”.
As to `Nc1nc(OCc2ccc([18F])cc2)c2nc[nH]c2n1` [[^18F]FBG, 6-(4-[^18F]Fluoro-benzyloxy)-9H-purin-2-ylamine], in data set [2], the “maximum observed AGT to BSA binding ratio” value came out at 661 and the “unlabeled compound concentration above which saturation was observed” value is “higher than 2 μM”. Moreover, in data set [2] (at 0.5 μM of unlabeled FBG, 10 μg AGT, 30 minutes at 37° C.), the “percent of input activity that bound to AGT, maximum” value is reported as “about 90%”.
Take `Nc1nc(OCc2cccc([131I])c2)c2nc[nH]c2n1` [[^131I]IBG, 6-(3-[^131I]Iodo-benzyloxy)-9H-purin-2-ylamine]: in data set [2], the “maximum observed AGT to BSA binding ratio” value was determined as 35 and the “unlabeled compound concentration above which saturation was observed” value was “higher than 3 μM”. Moreover, in data set [2] (over a wide range of unlabeled IBG concentrations, 10 μg AGT, 30 minutes at 37° C.), the “percent of radiolabeled compound bound to AGT” value was “About 60%”.
